Laboratory results as given in patent US20220047567A1, “METHODS FOR THE TREATMENT OF NEUROFIBROMATOSIS” (INSERM (INSTITUT NATIONAL DE LA SANTÉ ET DE LA RECHERCHE …, priority 2018, published 2022).
“Also recorded” adds a separate entry of the source.

Assays:
[1] = system: PIK3CA pathway (phosphorylation of AKT and S6RP) in NF1−/− cells; experiment: Western blot of AKT and S6RP phosphorylation in immortalized NF1−/− cells; assay type: cell-based; conditions: after 12 h of exposure
Description: (§1) FIG. 1: NF1+/+ and NF1−/− cells were exposed to either DMSO, BYL719 at different concentrations […], selumetinib at different concentrations (1 and 10 mmol·L−1) or a combination of BYL719 1 mmol·L−1 and selumetinib 10 mmol·L−1 or BYL719 1 mmol·L−1 and selumetinib 10 mmol·L−1 and IPA3. […] The addition of BYL719 to either selumetinib or selumetinib and IPA3 increases cells apoptosis. All data are shown as the means±s.e.m. ANOVA followed by Tukey-Kramer test. White column: NF1+/+, black column: NF1−/−.
(§2) Inventors first checked in immortalized NF1−/− cells if the PIK3CA pathway was recruited (FIGS. 1A, 1B and 1C). […] They then treated the cells with BYL719. […] They then exposed the NF1−/− cells to different dose of selumetinib, a MAP kinase inhibitor, drug that gave encouraging results in some patients with neurofibromatosis.

NF1−/− cells = experiment: Apoptosis assessed by PARP cleavage in NF1−/− cells; assay type: cell-based; conditions: different doses, FIG. 1C
Description: as §1, §2

Cc1nc(NC(=O)N2CCC[C@H]2C(N)=O)sc1-c1ccnc(C(C)(C)C(F)(F)F)c1 [BYL719]
phosphorylation of AKT ([1]; FIG. 1A): efficiently blocks; also recorded: efficiently blocking
phosphorylation of S6RP ([1]; FIG. 1B): efficiently blocks; also recorded: efficiently blocking
apoptosis as assessed by PARP cleavage (NF1−/− cells): induces apoptosis; also recorded: increased apoptosis as assessed by PARP cleavage in a dose dependent manner
